Test results as given in ChEMBL document CHEMBL1133599, “Inhibitors of tripeptidyl peptidase II. 2. Generation of the first novel lead inhibitor of cholecystokinin-8-inactivating peptidase: a strategy for the design of peptidase inhibitors” (J Med Chem, 2000).
Where a SMILES comes first, the peptide text is derived from it. [ ]: non-standard residue; d: D form. The star is where a group is joined. 2Nal = N[C@@H](Cc1ccc2ccccc2c1)C(=O)O; hPhe = N[C@@H](CCc1ccccc1)C(=O)O; Cha = N[C@@H](CC1CCCCC1)C(=O)O; Phg = N[C@H](C(=O)O)c1ccccc1; Nle = CCCC[C@H](N)C(=O)O; Nva = CCC[CH](N)C(=O)O; Cbz = O=C(OCc1ccccc1)*; Bn = c1ccc(C*)cc1; NHBu = CCCCN*

Target: Tripeptidyl-peptidase 2 (Rattus norvegicus, UniProt Q64560)
Sequence (Q64560 whole entry): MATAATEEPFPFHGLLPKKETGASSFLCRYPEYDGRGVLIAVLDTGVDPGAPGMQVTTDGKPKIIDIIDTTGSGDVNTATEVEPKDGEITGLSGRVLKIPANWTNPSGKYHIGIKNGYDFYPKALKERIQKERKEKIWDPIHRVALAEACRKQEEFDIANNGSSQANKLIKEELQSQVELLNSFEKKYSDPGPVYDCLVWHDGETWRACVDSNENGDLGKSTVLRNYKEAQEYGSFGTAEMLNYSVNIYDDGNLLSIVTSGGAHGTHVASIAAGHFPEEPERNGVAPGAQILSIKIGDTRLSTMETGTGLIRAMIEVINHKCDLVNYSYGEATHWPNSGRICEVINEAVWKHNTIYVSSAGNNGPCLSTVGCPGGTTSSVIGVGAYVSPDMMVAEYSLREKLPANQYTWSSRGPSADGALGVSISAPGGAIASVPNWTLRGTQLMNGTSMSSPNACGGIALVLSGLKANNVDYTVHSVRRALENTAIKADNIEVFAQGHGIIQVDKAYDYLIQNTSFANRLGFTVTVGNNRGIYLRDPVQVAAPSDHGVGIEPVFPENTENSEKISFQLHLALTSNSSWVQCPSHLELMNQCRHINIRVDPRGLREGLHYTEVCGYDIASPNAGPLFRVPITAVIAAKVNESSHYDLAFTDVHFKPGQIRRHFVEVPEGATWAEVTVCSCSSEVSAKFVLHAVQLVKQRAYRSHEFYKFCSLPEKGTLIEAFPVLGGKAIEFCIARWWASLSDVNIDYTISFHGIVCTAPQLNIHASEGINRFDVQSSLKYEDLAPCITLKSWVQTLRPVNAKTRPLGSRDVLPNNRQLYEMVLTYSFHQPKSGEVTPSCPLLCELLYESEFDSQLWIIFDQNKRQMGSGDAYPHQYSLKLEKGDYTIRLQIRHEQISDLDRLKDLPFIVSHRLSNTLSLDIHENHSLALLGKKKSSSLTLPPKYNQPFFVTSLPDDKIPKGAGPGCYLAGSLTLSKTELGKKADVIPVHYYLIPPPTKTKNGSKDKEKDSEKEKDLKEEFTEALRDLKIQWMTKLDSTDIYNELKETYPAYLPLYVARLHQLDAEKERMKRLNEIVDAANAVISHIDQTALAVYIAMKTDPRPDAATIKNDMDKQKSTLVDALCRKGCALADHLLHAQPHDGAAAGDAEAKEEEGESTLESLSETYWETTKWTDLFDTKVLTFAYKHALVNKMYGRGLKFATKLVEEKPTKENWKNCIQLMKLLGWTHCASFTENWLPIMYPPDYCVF
Assay: Inhibition potency against Cholecystokinin-8-Inactivating Peptidase (Serine Peptidase).

## CC(C)C(N)C(=O)NC(Cc1ccc(OCc2ccccc2)cc1)C(=O)O (stereo not drawn) (H-Val-Tyr(Bn)-OH; configuration not given here)
  Ki: 210 µM

## CC(C)[C@H](N)C(=O)N[C@@H](Cc1ccc2ccccc2c1)C(=O)O (H-Val-[2Nal]-OH)
  Ki: 60 µM

## CCCCNC(=O)[C@H](CCCC)NC(=O)[C@@H](N)C(C)C (H-Val-[Nle]-NHBu)
  Ki: 14 µM

## CCC[C@H](NC(=O)[C@@H](NCc1ccccc1)C(C)C)C(=O)O
  Ki: > 5000 µM

## CSCC[C@@H](NC(=O)[C@@H](N)C(C)C)C(=O)O
  Ki: 2000 µM

## CCC[C@H](NC(=O)[C@@H](N)CCC)C(=O)O (H-[Nva]-[Nva]-OH)
  Ki: 1000 µM

## CC(C)C(NC(=O)C(NC(=O)OCc1ccccc1)C(C)C)C(=O)O (stereo not drawn) (Cbz-Val-Val-OH; configuration not given here)
  Ki: > 5000 µM

## CCCC[C@H](NC(=O)[C@@H](N)CCCC)C(=O)NC
  Ki: 9 µM

## CNC(=O)[C@@H](NC(=O)[C@@H](N)C(C)C)C(C)C (H-Val-Val-NHMe)
  Ki: 46 µM

## C[C@H](N)C(=O)N[C@@H](C)C(=O)N1CCC[C@H]1C(=O)N[C@@H](C)C(=O)O (H-AAPA-OH)
  Ki: 114 µM

## CC(C)[C@H](N)C(=O)NCCCCc1ccccc1
  Ki: 33 µM

## CCCCOC(=O)N[C@H](C(=O)N[C@@H](CCCC)C(=O)O)C(C)C
  Ki: > 5000 µM

## CC(C)[C@H](N)C(=O)N[C@H](C(=O)O)C(C)C [VAL-VAL] (H-Val-Val-OH)
  Ki: 1670 µM

## CCCC[C@H](NC(=O)[C@@H](N)C(C)C)C(=O)NC (H-Val-[Nle]-NHMe)
  Ki: 66 µM

## CC(C)[C@H](N)C(=O)N[C@@H](Cc1ccc(O)cc1)C(=O)O (H-Val-Tyr-OH)
  Ki: 857 µM

## C[C@H](N)C(=O)N1CCC[C@H]1C(=O)N[C@@H](C)C(=O)O (H-Ala-Pro-Ala-OH)
  Ki: 3 µM

## CSCC[C@H](NC(=O)[C@H](Cc1c[nH]c2ccccc12)NC(=O)CN)C(=O)O (H-Gly-Trp-Met-OH)
  Ki: 20 µM

## CC(C)[C@H](N)C(=O)NC(CO)Cc1ccccc1 (stereo partly drawn)
  Ki: 2100 µM

## NCC(=O)NCC(=O)N[C@@H](Cc1ccccc1)C(=O)O (H-Gly-Gly-Phe-OH)
  Ki: 110 µM

## CC(C)[C@H](N)C(=O)N[C@@H](CC1CCCCC1)C(=O)O (H-Val-[Cha]-OH)
  Ki: 3000 µM

## CC(C)[C@H](N)C(=O)NCCc1ccccc1
  Ki: 114 µM

## CC(C)[C@H](N)C(=O)NCCCc1ccccc1
  Ki: 86 µM

## CSCC[C@@H](N)C(=O)N[C@@H](Cc1ccc(O)cc1)C(=O)O
  Ki: 2000 µM

## CCCCOC(=O)[C@H](Cc1ccccc1)NC(=O)[C@@H](N)C(C)C
  Ki: 230 µM

## CC(C)[C@H](N)C(=O)NCc1ccccc1
  Ki: 80 µM

## CC(C)[C@H](NC(=O)CN)C(=O)N[C@@H](Cc1ccccc1)C(=O)O (H-Gly-Val-Phe-OH)
  Ki: 29 µM

## CSCC[C@H](NC(=O)[C@H](Cc1ccc(O)cc1)NC(=O)[C@@H](N)CC(=O)O)C(=O)O (H-Asp-Tyr-Met-OH)
  Ki: 50 µM

## CCCC[C@H](NCc1ccccc1)C(=O)N[C@@H](CCCC)C(=O)NC
  Ki: > 3000 µM

## C[C@H](N)C(=O)N[C@@H](C)C(=O)N[C@@H](C)C(=O)O
  Ki: 14 µM

## NCC(=O)N[C@@H](Cc1c[nH]c2ccccc12)C(=O)O (H-Gly-Trp-OH)
  Ki: 650 µM

## CCCC[C@H](NC(=O)[C@@H](N)C(C)C)C(=O)NCCCc1ccccc1
  Ki: 29 µM

## CCCC(NC(=O)C(NC(=O)OCc1ccccc1)C(C)C)C(=O)O (stereo not drawn) (Cbz-Val-[Nva]-OH; configuration not given here)
  Ki: > 5000 µM

## CNC(=O)[C@H](Cc1ccccc1)NC(=O)[C@@H](N)C(C)C (H-Val-Phe-NHMe)
  Ki: 22 µM

## CNC(=O)[C@@H](NC(=O)[C@@H](N)C(C)C)c1ccccc1 (H-Val-[Phg]-NHMe)
  Ki: 29 µM

## CCC[C@H](NC(=O)[C@@H](NC(C)=O)C(C)C)C(=O)O (Ac-Val-[Nva]-OH)
  Ki: > 500 µM

## CC(N)C(=O)NC(C)C(=O)O (stereo not drawn)
  Ki: 5000 µM

## NCC(=O)N[C@@H](Cc1ccccc1)C(=O)O (H-Gly-Phe-OH)
  Ki: 470 µM

## C[C@H](N)C(=O)N[C@@H](Cc1ccccc1)C(=O)O
  Ki: 1140 µM

## COC(=O)[C@H](Cc1ccccc1)NC(=O)[C@@H](N)C(C)C (H-Val-Phe-OMe)
  Ki: 260 µM

## CCCC[C@H](NC(=O)[C@@H](N)CCCC)C(=O)O
  Ki: 1430 µM

## CCCC[C@H](NC)C(=O)N[C@@H](CCCC)C(=O)NC
  Ki: > 3000 µM

## CCCCNC(=O)[C@H](CC1CCCCC1)NC(=O)[C@@H](N)C(C)C (H-Val-[Cha]-NHBu)
  Ki: 57 µM

## CCCCOC(=O)[C@H](CCCC)NC(=O)[C@@H](N)C(C)C
  Ki: 290 µM

## CC(C)[C@H](N)C(=O)N[C@@H](CCc1ccccc1)C(=O)O (H-Val-[hPhe]-OH)
  Ki: 570 µM

## CCC[C@H](NC(=O)[C@@H](N)C(C)C)C(=O)O (H-Val-[Nva]-OH)
  Ki: 433 µM

## CCCC[C@H](NC(=O)[C@@H](N)C(C)C)C(=O)O (H-Val-[Nle]-OH)
  Ki: 860 µM

## CCCC[C@H](NC)C(=O)N[C@@H](CCCC)C(=O)OC
  Ki: > 5000 µM

## C[C@H](N)C(=O)N1CCC[C@H]1C(=O)O (H-Ala-Pro-OH)
  Ki: 1400 µM

## CCCCNC(=O)[C@H](CCC)NC(=O)[C@@H](N)C(C)C (H-Val-[Nva]-NHBu)
  Ki: 3 µM

## CC[C@H](C)[C@H](N)C(=O)N1CCC[C@H]1C(=O)N[C@H](C(=O)O)[C@@H](C)CC [DIPROTIN A]
  Ki: 1 µM

## CNC(=O)[C@H](Cc1ccc(O)cc1)NC(=O)[C@@H](N)C(C)C (H-Val-Tyr-NHMe)
  Ki: 11 µM

## CCC[C@H](NC(=O)[C@@H](N)C(C)C)C(=O)NC (H-Val-[Nva]-NHMe)
  Ki: 28 µM

## CCCCOC(=O)C(CCCC)NC(=O)C(NC(=O)OCc1ccccc1)C(C)C (stereo not drawn)
  Ki: > 3000 µM

## CC(C)[C@H](N)C(=O)N[C@@H](C)C(=O)O (H-Val-Ala-OH)
  Ki: 9000 µM

## CSCC[C@@H](N)C(=O)N[C@H](CCSC)C(=O)O (H-[dM]-[dM]-OH)
  Ki: > 5000 µM

## CC(C)[C@H](N)C(=O)N[C@H](C(=O)O)c1ccccc1 (H-Val-[Phg]-OH)
  Ki: 600 µM

## CCCCNC(=O)[C@H](Cc1ccccc1)NC(=O)[C@@H](N)C(C)C (H-Val-Phe-NHBu)
  Ki: 20 µM

## N[C@@H](CC(=O)O)C(=O)N[C@@H](Cc1ccc(O)cc1)C(=O)O (H-Asp-Tyr-OH)
  Ki: > 5000 µM
